From US9206412B2, “Thioxothiazolidine inhibitors” (Colorado State University Research Foundation, priority 2012, dated 2015) come the findings set out here.

Data set [1] addresses T1, dengue virus capping enzyme (Dengue virus type 2, UniProt P29990).
T1 sequence (P29990 2492-2758): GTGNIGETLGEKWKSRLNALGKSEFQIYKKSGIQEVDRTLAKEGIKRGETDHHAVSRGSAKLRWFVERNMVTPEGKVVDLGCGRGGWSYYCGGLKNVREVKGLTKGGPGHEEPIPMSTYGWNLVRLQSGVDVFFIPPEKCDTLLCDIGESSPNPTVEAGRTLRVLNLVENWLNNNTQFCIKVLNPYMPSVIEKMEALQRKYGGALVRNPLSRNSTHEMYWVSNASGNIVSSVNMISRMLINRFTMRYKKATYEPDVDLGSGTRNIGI
As to the kind of experiment: biochemical. In kind it is binding, dengue virus type 2 (strain 16681).

A further data set concerns the target WNV. Put plainly: Ki determination, fluorescence polarization (FP_WNV_KI). The conditions noted are these: read-out: FP_WNV_KI_AVG_WNV_M; Table 2-1.
For data set [2], the system named is dengue type 2 virus subgenomic replicon (BHK-pD2hRucPac). Put plainly: Antiviral (replicon) assay, Renilla luciferase. In kind it is cell-based.
Another data set relates to BHK-pD2hRucPac cells. Put plainly: Cell viability (CellTiter-Glo) in replicon assay. The following applies: read-out: Replicon Assay_CC50_M; Table 2-1.
Data set [3] addresses yellow fever virus capping enzyme (Yellow fever virus, UniProt P03314). Put plainly: biochemical. Format: binding, yellow fever virus (strain 17D).
Data set [4] deals with West Nile virus (Kunjin) RNA. As to the kind of experiment: qRT-PCR of Kunjin viral RNA in culture media. In kind it is cell-based. On the procedure:
Quantitative Reverse Transcriptase Real-Time PCR Analysis. West Nile virus (Kunjin) RNA was extracted from cell culture media with Trizol LS (Invitrogen, La Jolla, Calif.) following the manufacturer's protocol. Quantitative reverse transcriptase real-time PCR reactions for Kunjin genomic RNA were performed using the Brilliant III Ultra-Fast SYBR QRT-PCR Master Mix (Catalog # 600886, Agilent, Santa Clara, Calif.) with primers Fwd 6170 (5′-[…] (SEQ ID NO: 1)) and Rev 6278 (5′-[…] (SEQ ID NO: 2)). To set up qRT-PCR reactions, 2 μL of extracted RNA was added to 5 μL of 2× master mix, 1 μL of 5 μM Fwd 6170 primer, 1 μL of 5 μM Rev 6278 primer, and 1 μL of 100 mM DTT in 96-well PCR plates with optically clear sealing films. No RNA and no primer controls were included in each experiment. qRT-PCR reactions were performed on a BioRad CFX384 real-time PCR thermal cycler using the following cycling conditions: Reverse transcriptase step=50° C., 10 minutes; denature step=95° C., 3 minutes; PCR (40 cycles)=95° C., 5 seconds/60° C., 10 seconds. Melt curves were performed at the end of each run, to verify the specificity of the detected SYBR signal. Cq values were determined by setting the threshold to 40 for all experiments. Standard curves were generated from diluted media containing Kunjin virus of known titer (PFU/mL), and the Cq values from experimental samples were compared to the standard curve to establish PFU equivalent/mL values for each sample (y=−3.475x+27.577, y=Cq , X=Log10(PFU)). The limit of detection in these experiments was determined to be 10 PFU equivalents/mL. All experiments were performed three times, and the average and standard error of the mean reported.

The next data set concerns Sindbis virus pBG451. Format: cell-based.
A further data set concerns yellow fever (17D) virus. In kind it is cell-based.
A further data set has as its system Kunjin virus NS5 protein. Put plainly: Western blot analysis of NS5 in Kunjin infected BHK cells. The following applies: MOI=0.01, 48 hours post-infection, increasing concentrations.
In data set [5] the test system is West Nile virus (Kunjin subtype). Format: cell-based.
Data set [6] is described as follows: Cell viability (CellTiter-Glo) in replicon assay. The following applies: hamster, BHK-pD2hRucPac cells (dengue replicon cells).

Where “and” joins values, the source holds several entries; their conditions need not be identical. Equal values may be shown once. Entries after “also recorded” stand apart in the source; their conditions may differ. Read-outs that look alike come from different tables or passages of the source.

yellow fever virus capping enzyme, sequence (P03314 2507-2774 limits assumed): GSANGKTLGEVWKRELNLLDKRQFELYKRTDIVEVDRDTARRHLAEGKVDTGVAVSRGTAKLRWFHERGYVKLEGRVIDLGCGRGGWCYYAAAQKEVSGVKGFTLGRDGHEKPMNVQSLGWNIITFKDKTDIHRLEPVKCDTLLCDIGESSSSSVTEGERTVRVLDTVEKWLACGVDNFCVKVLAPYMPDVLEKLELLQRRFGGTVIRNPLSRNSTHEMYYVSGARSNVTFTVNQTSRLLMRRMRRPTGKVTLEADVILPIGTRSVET

For the compound `CC(C)(C)c1ccc(/C=C2\SC(=S)N(CCC(=O)O)C2=O)cc1` [BG295], the Ki in [1] (read-out: FP_DEN_Ki_AVG_DEN_M) was determined as 2 µM; on WNV, 8 µM; in data set [3] (read-out: FP_YF_KI_AVG_YF_M), 2 µM. In addition, the EC50 in data set [2] (Table 2-1, read-out: Replicon Assay_EC50_M) is 30 µM. For the same compound, the CC50 in the data set on BHK-pD2hRucPac cells worked out at 114 µM.

In the case of `CC(C)(C)c1ccc(/C=C2/SC(=S)N(CCC(=O)O)C2=O)cc1` [BG-323, (E)-3-(5-(4-tert-butylbenzylidene)-4-oxo-2-thioxo-1,3-thiazolidin-3-yl)propanoic acid], the “viral RNA in media with replacement of compound every 24 hours” value in data set [4] (100 μM, fresh media every 24 hours for 72 hours) is recorded as “significantly reduced viral RNA in media over time”. In addition, the “viral RNA detectable in the media” value in data set [4] (BHK, Kunjin MOI=0.01, 50 μM or 100 μM, 72 hours post-infection) is listed as “significantly reduced”. Also, in data set [4] (pre-incubated 3, 2, 1, or 0 days, 50 μM, Kunjin RNA at 72 hours), the “activity after pre-incubation in media at 37° C.” value is recorded as “becomes less active over longer incubation periods”. For the same compound, the Ki was 7.5 µM in data set [1] (FP_DEN_Ki_AVG_DEN_M); ~7 µM and 7.5 µM and ~10 µM in [1] (Ki (GTP displacement)); 9.5 µM in [3] (FP_YF_KI_AVG_YF_M); roughly 7 µM in data set [3] (Ki (GTP binding)). For the same compound, the “Renilla signal of Sindbis virus” value in the data set on Sindbis virus pBG451 was “Only a very minor reduction in Renilla signal; also recorded: insensitive”. Moreover, the entries for the “reduction of virus titers” value (with yellow fever (17D) virus; in [5]) were “slightly less robust effect” and roughly 3 logs, respectively. Besides, the EC50 is 30.8 µM in data set [2] (Dengue virus, 72 h, read-out: Replicon EC50, Table 3, 72 hours); 30.8 µM in [2] (Dengue virus, 72 h, read-out: Replicon EC50, 72 hours); 30.8 µM in [2] (Dengue virus, read-out: Replicon Assay_EC50_M, Table 2-1); roughly 30 µM in data set [2] (read-out: Replicon EC50, 72 hours). Further, in the data set on Kunjin virus NS5 protein, the “viral NS5 protein level” value is “significant decrease in NS5”. Besides, the cell viability result in the data set on BHK cells is “minor reduction in cell viability”. Moreover, the CC50 at 72 h in data set [6] (Replicon Assay_CC50_M, Table 2-1) turned out to be 184 µM; in data set [6] (Replicon CC50, Table 3, 72 hours), 184 µM; in [6] (Replicon CC50, text), 184 µM.
